The text below walks through data of patent US9133204B2, “5-membered heterocyclic amides and related compounds” (H. Lundbeck A/S, priority 2007, dated 2015).

The first test addresses T1, P2X7 receptor (Homo sapiens, UniProt Q99572).
T1 construct: host or cells: SH-SY5Y
T1 sequence (Q99572 1-595): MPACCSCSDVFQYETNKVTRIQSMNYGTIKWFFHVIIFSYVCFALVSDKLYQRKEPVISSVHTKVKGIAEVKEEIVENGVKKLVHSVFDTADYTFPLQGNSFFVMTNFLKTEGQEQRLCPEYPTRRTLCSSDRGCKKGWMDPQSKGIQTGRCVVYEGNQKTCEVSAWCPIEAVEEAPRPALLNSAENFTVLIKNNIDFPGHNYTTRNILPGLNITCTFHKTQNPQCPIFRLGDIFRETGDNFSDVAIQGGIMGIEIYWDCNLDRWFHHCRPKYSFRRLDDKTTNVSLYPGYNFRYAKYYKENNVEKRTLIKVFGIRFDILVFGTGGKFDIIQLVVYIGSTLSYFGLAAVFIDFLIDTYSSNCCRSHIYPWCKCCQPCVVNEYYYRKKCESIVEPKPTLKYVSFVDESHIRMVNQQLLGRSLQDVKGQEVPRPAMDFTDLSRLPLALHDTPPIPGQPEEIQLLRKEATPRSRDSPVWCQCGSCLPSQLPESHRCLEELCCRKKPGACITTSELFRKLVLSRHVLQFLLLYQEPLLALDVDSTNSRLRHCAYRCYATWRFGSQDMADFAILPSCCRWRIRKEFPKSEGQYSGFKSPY
Put plainly: High throughput P2X7 calcium mobilization assay (Example 4A). It counts as cell-based. Particulars: SH-SY5Y cells; 50% decrease in fluorescence response of cells exposed to 80 μM BzATP; Table I. The procedure: A. High Throughput Assay of P2X7 Receptors
SH-SY5Y cells, ATCC Number CRL-2266, (American Type Culture Collection, Manassas, Va.) are cultured under DMEM/High medium supplemented with 10% FBS, and 10 mM HEPES (Invitrogen Corp., Carlsbad, Calif.) in 5% CO2 and at 37° C. One day prior to the experiment, cells are plated at a density of 100,000 cells/well in a 96 well black/clear TC plate (Corning® Costar®, Sigma-Aldrich Co., St. Louis, Mo.). At the beginning of the experiment, the culture medium is removed and cells are incubated with 50 μL of 2.3 μM Fluo-4 AM dye (Invitrogen Corp.) in the assay solution (5 mM KCl, 9.6 mM NaH2PO4.H2O, 25 mM HEPES, 280 mM sucrose, 5 mM glucose, and 0.5 mM CaCl2; pH is adjusted to 7.4 with NaOH) for an hour at 37° C. After one hour dye incubation, wells are rinsed once with 50 μL assay solution, and are then incubated for an hour at room temperature with 100 μL assay solution containing the test compound. The final concentration of test compound generally ranges from 1 to 2500 nM; for positive control cells, no test compound is added. After the one hour incubation, plates are transferred to a FLIPR^TETRA instrument (Molecular Devices, Sunnyvale, Calif.) for calcium mobilization analysis.
For determination of antagonist activity, 50 μL, of P2X7 agonist (2′(3)-O-(4-benzoyl-benzoyl)adenosine 5′-triphosephate (BzATP; Sigma-Aldrich) in the assay solution is transferred using the FLIPR into the plate, such that the final agonist concentration is 80 μM (about EC50). In negative control cells, 50 μL of assay solution without agonist is added at this stage. The peak fluorescence signal over a 2 minute period is then measured.
First, the average maximum relative fluorescent unit (RFU) response from the negative control wells (no agonist) is subtracted from the maximum response detected for each of the other experimental wells. Second, average maximum RFU response is calculated for the positive control wells (agonist wells).
In general terms: A change in cytosolic calcium serves as a functional read-out for many receptors and channels.
For orientation: IC50 means the concentration needed to halve the response being measured. For the molecule `COc1nccnc1-n1cc(C(=O)NCC23CC4CC(CC(C4)C2)C3)c(C)n1` [Compound 42, N-(adamantan-1-ylmethyl)-1-(3-methoxypyrazin-2-yl)-3-methyl-1H-pyrazole-4-carboxamide], the IC50 is ≤ 2000 nM. On the same count and under the same terms, the figure for `Cc1nn(-c2cncc(N)n2)cc1C(=O)NCC12CC3CC(CC(C3)C1)C2` [Compound 43, N-(adamantan-1-ylmethyl)-1-(6-aminopyrazin-2-yl)-3-methyl-1H-pyrazole-4-carboxamide] is ≤ 2000 nM; for `Cc1cnc(-n2cc(C(=O)NCC34CC5CC(CC(C5)C3)C4)c(C)n2)nc1N` [Compound 45, N-(adamantan-1-ylmethyl)-1-(4-amino-5-methylpyrimidin-2-yl)-3-methyl-1H-pyrazole-4-carboxamide] it is ≤ 2000 nM; for `Cc1cc(C(=O)NCC23CC4CC(CC(C4)C2)C3)n(C)n1` [Compound 46, N-(adamantan-1-ylmethyl)-1,3-dimethyl-1H-pyrazole-5-carboxamide] it is ≤ 2000 nM. The same measure, in the same setting: the figure for `COC(=O)c1cc(C(=O)NCC23CC4CC(CC(C4)C2)C3)n(C(C)C)n1` [Compound 47, methyl 5-[(adamantan-1-ylmethyl)carbamoyl]-1-isopropyl-1H-pyrazole-3-carboxylate] is ≤ 2000 nM; for `CCn1nc(C)c(Br)c1C(=O)NCC(CC(C)C)c1ccccc1` (stereo not drawn) [Compound 49, 4-bromo-1-ethyl-3-methyl-N-(4-methyl-2-phenylpentyl)-1H-pyrazole-5-carboxamide] it is ≤ 2000 nM; for `CCn1nc(C)c(Br)c1C(=O)NCC(c1ccccc1)c1ccccc1` [Compound 50, 4-bromo-N-(2,2-diphenylethyl)-1-ethyl-3-methyl-1H-pyrazole-5-carboxamide] it is ≤ 2000 nM. Still for that read-out and setting: the same measure for `CC(C)n1nc(CN2CCCC(N)C2)cc1C(=O)NCC12CC3CC(CC(C3)C1)C2` (stereo not drawn) [Compound 55, N-(adamantan-1-ylmethyl)-3-[(3-aminopiperidin-1-yl)methyl]-1-isopropyl-1H-pyrazole-5-carboxamide]: ≤ 2000 nM. With `Cc1cnc(-n2cc(C(=O)NCC34CC5CC(CC(C5)C3)C4)c(C)n2)nc1NCCO` [Compound 56, N-(adamantan-1-ylmethyl)-1-{4-[(2-hydroxyethyl)amino]-5-methylpyrimidin-2-yl}-3-methyl-1H-pyrazole-4-carboxamide], the IC50 was ≤ 2000 nM. On the same count and under the same terms, the figure for `Cc1nn(-c2nccnc2N)cc1C(=O)NCC12CC3CC(CC(C3)C1)C2` [Compound 58, N-(adamantan-1-ylmethyl)-1-(3-aminopyrazin-2-yl)-3-methyl-1H-pyrazole-4-carboxamide] is ≤ 2000 nM; for `Cc1nn(-c2cccc(N)n2)cc1C(=O)NCC12CC3CC(CC(C3)C1)C2` [Compound 59, N-(adamantan-1-ylmethyl)-1-(6-aminopyridin-2-yl)-3-methyl-1H-pyrazole-4-carboxamide] it is ≤ 2000 nM. On the same count and under the same terms, the same measure for `Cc1nn(-c2cnc(N)cn2)cc1C(=O)NCC12CC3CC(CC(C3)C1)C2` [Compound 61, N-(adamantan-1-ylmethyl)-1-(5-aminopyrazin-2-yl)-3-methyl-1H-pyrazole-4-carboxamide]: ≤ 2000 nM.

Turning to `Cc1nn(C)c(C(=O)NCC23CC4CC(CC(C4)C2)C3)c1Br` [Compound 62, N-(adamantan-1-ylmethyl)-4-bromo-1,3-dimethyl-1H-pyrazole-5-carboxamide], the IC50 was ≤ 2000 nM. Still for that read-out and setting: the same measure for `CCn1nc(C)c(Br)c1C(=O)NCC12CC3CC(CC(C3)C1)C2` [Compound 63, N-(adamantan-1-ylmethyl)-4-bromo-1-ethyl-3-methyl-1H-pyrazole-5-carboxamide]: ≤ 2000 nM; for `Cc1cc(-n2cc(C(=O)NCC34CC5CC(CC(C5)C3)C4)c(C)n2)nc(N)n1` [Compound 64, N-(adamantan-1-ylmethyl)-1-(2-amino-6-methylpyrimidin-4-yl)-3-methyl-1H-pyrazole-4-carboxamide]: ≤ 2000 nM. The same measure, in the same setting: the same measure for `O=C(NCC12CC3CC(CC(C3)C1)C2)c1sc(-c2ccccc2C(F)(F)F)nc1Cl` [Compound 65, N-(adamantan-1-ylmethyl)-4-chloro-2-[2-(trifluoromethyl)phenyl]-1,3-thiazole-5-carboxamide]: ≤ 2000 nM; for `O=C(NCC12CC3CC(CC(C3)C1)C2)c1cnc(-c2ccccc2C(F)(F)F)s1` [Compound 67, N-(adamantan-1-ylmethyl)-2-[2-(trifluoromethyl)phenyl]-1,3-thiazole-5-carboxamide]: ≤ 2000 nM. Same read-out and setting: the figure for `Cc1nc(Sc2nccn2C)c(C(=O)NCC23CC4CC(CC(C4)C2)C3)s1` [Compound 69, N-(adamantan-1-ylmethyl)-2-methyl-4-[(1-methyl-1H-imidazol-2-yl)thio]-1,3-thiazole-5-carboxamide] is ≤ 2000 nM; for `Cc1nc(OC2CCNCC2)sc1C(=O)NCC12CC3CC(CC(C3)C1)C2` [Compound 70, N-(adamantan-1-ylmethyl)-4-methyl-2-(piperidin-4-yloxy)-1,3-thiazole-5-carboxamide] it is ≤ 2000 nM; for `Cc1nc(N2CCNCC2)sc1C(=O)NCC12CC3CC(CC(C3)C1)C2` [Compound 72, N-(adamantan-1-ylmethyl)-4-methyl-2-piperazin-1-yl-1,3-thiazole-5-carboxamide] it is ≤ 2000 nM.

Staying with this test, now noted: SH-SY5Y cells; 50% decrease in fluorescence response of cells exposed to 80 μM BzATP; flag after the MS data in Examples 1-2.
Turning to `Cc1nc(-c2cccnc2)sc1C(=O)NCC(CC(C)C)c1ccc(Cl)cc1` (stereo not drawn) [Compound 31, N-[2-(4-Chlorophenyl)-4-methylpentyl}-4-methyl-2-pyridin-3-yl-1,3-thiazole-5-carboxamide], the IC50 is ≤ 2000 nM. Still for that read-out and setting: the figure for `Cc1nc(-c2cccnc2)sc1C(=O)NCC1(c2ccc(C(F)(F)F)cc2)CCCCC1` [Compound 32, N-({1-[4-(trifluoromethyl)phenyl]cyclohexyl}methyl)-4-methyl-2-pyridin-3-yl-1-,3-thiazole-5-carboxamide] is ≤ 2000 nM; for `Cc1ccc(C(CNC(=O)c2sc(-c3cccnc3)nc2C)CC(C)C)cc1` (stereo not drawn) [Compound 33, N-[4-methyl-2-(4-methylphenyl)pentyl}-4-methyl-2-pyridin-3-yl-1,3-thiazole-5-carboxamide] it is ≤ 2000 nM; for `Cc1nc(-c2cccnc2)sc1C(=O)NCC1(c2ccc(F)cc2)CCCCC1` [Compound 34] it is ≤ 2000 nM. The same measure, in the same setting: the figure for `CCCC(CNC(=O)c1sc(-c2cccnc2)nc1C)c1ccc(Cl)cc1` (stereo not drawn) [Compound 35, N-[2-(4-chlorophenyl)pentyl}-4-methyl-2-pyridin-3-yl-1,3-thiazole-5-carboxamide] is ≤ 2000 nM; for `COc1ccc(C2(CNC(=O)c3sc(-c4cccnc4)nc3C)CCCCC2)cc1` [Compound 36, N-{[1-(4-methoxyphenyl)cyclohexyl]methyl}-4-methyl-2-pyridin-3-yl-1,3-thiazole-5-carboxamide] it is ≤ 2000 nM; for `Cc1nc(-c2cccnc2)sc1C(=O)NCC1(c2ccc(Cl)cc2)CCOCC1` [Compound 37, N-{[4-(4-Chlorophenyl)tetrahydro-2H-pyran-4-yl]methyl}-4-methyl-2-pyridin-3-yl-1,3-thiazole-5-carboxamide] it is ≤ 2000 nM. Still for that read-out and setting: the figure for `Cc1ccc(C2(CNC(=O)c3sc(-c4cccnc4)nc3C)CCCCC2)cc1` [Compound 38, N-{[1-(4-methylphenyl)cyclohexyl]methyl}-4-methyl-2-pyridin-3-yl-1,3-thiazole-5-carboxamide] is ≤ 2000 nM.

Consider `Cc1nc(-c2cccnc2)sc1C(=O)NCC1(c2ccc(Cl)c(F)c2)CCCCC1` [Compound 39, N-{[1-(4-chloro-3-fluorophenyl)cyclohexyl]methyl}-4-methyl-2-pyridin-3-yl-1-,3-thiazole-5-carboxamide], for which the IC50 was ≤ 2000 nM. Still for that read-out and setting: the same measure for `Cc1ccc(C2(CNC(=O)c3sc(-c4cccnc4)nc3C)CCCCC2)cn1` [Compound 40, N-{[1-(6-methylpyridin-3-yl)cyclohexyl]methyl}-4-methyl-2-pyridin-3-yl-1-,3-thiazole-5-carboxamide]: ≤ 2000 nM.
